What was measured:
[1] = molecular target: T1, PCAF (h) bromodomain (Homo sapiens, UniProt Q92831); assay: Epigenetic binding assay, Bromodomain; conditions: 10 μM; read-out: % Inhibition of Control Specific Binding
T1 construct: Bromodomain
T1 sequence (Q92831 723-827 limits assumed): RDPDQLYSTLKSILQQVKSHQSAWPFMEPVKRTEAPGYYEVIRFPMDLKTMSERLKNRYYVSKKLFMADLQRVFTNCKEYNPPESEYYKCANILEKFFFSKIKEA

[2] = molecular target: T2, SP140 (h) bromodomain (Homo sapiens, UniProt Q13342); assay: Epigenetic binding assay, Bromodomain; set-up: inhibition of binding, 1st / inhibition of binding, 2nd / inhibition of binding, Mean: unit: %; conditions: for inhibition at 10 µM: read-out: % Inhibition of Control Specific Binding
T2 construct: SP140 (h) bromodomain
T2 sequence (Q13342 754-857 limits assumed): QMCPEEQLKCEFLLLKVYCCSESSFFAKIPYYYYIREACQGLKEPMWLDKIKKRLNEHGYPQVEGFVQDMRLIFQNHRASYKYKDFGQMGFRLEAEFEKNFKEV

[3] = molecular target: T3, BAZ2B (h) bromodomain (Homo sapiens, UniProt Q9UIF8); assay: Epigenetic binding assay, Bromodomain; conditions: read-out: % Inhibition of Control Specific Binding
T3 construct: Bromodomain
T3 sequence (Q9UIF8 2060-2164 limits assumed): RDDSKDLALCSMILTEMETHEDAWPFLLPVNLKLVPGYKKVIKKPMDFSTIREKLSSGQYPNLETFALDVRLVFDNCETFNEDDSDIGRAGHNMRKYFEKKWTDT

[4] = system: H3K27 me3; assay: Cell-based detection methyl modifications; conditions: read-out: % Inhibition of Control Values
[5] = molecular target: T4, JMJD2D (h) (Homo sapiens, UniProt Q6B0I6); assay: Epigenetic enzyme assay, Demethylases (KDMs); type: biochemical; conditions: read-out: % Inhibition of Control Values
T4 sequence (Q6B0I6 1-523): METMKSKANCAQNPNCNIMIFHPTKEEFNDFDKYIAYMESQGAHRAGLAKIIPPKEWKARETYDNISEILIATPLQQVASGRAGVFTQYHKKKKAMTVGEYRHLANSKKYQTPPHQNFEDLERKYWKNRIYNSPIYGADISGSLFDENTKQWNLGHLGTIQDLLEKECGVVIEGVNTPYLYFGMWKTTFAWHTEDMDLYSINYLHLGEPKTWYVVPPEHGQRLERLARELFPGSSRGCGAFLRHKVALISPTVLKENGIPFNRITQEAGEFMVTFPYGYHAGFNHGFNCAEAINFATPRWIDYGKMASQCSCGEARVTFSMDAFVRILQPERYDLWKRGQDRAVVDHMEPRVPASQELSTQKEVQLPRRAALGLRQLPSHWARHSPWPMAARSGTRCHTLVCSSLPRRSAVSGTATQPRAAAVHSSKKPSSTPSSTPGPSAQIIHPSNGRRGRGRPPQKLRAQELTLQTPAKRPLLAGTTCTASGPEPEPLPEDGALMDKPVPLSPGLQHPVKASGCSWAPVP

[6] = molecular target: HDAC4 (h) (Homo sapiens, UniProt P56524); assay: Epigenetic enzyme assay, Histone deacetylase (HDACs); type: biochemical; conditions: read-out: % Inhibition of Control Values
Sequence of HDAC4 (h) (P56524 whole entry): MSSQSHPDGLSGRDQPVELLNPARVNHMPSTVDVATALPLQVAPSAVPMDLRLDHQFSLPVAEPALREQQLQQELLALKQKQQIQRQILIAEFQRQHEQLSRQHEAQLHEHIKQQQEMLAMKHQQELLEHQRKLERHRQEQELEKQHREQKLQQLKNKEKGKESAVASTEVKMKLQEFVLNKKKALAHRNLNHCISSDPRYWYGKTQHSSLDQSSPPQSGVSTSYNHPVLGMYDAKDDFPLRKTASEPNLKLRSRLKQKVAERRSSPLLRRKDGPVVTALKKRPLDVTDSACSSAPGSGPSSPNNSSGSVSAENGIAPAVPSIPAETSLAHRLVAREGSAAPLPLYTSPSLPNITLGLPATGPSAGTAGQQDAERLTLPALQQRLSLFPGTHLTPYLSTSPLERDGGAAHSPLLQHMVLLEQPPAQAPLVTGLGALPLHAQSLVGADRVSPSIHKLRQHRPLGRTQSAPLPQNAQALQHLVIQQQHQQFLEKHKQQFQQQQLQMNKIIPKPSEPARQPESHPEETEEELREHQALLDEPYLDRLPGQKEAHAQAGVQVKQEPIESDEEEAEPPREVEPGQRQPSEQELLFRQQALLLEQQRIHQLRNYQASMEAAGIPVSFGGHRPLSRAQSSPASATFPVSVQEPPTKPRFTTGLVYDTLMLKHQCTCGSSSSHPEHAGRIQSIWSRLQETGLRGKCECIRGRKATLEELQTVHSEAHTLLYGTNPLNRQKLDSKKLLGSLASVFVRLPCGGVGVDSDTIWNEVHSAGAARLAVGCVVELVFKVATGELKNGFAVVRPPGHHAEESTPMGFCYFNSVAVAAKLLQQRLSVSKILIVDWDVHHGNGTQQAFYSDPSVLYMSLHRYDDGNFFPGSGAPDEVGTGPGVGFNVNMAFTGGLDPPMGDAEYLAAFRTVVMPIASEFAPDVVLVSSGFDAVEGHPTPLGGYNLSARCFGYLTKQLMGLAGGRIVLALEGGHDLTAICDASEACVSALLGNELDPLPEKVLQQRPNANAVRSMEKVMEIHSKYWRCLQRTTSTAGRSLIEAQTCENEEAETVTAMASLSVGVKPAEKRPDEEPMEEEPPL

[7] = molecular target: T5, HDAC11 (h) (Homo sapiens, UniProt Q96DB2); assay: as above; type: biochemical; conditions: read-out: % Inhibition of Control Values
T5 sequence (Q96DB2 1-347): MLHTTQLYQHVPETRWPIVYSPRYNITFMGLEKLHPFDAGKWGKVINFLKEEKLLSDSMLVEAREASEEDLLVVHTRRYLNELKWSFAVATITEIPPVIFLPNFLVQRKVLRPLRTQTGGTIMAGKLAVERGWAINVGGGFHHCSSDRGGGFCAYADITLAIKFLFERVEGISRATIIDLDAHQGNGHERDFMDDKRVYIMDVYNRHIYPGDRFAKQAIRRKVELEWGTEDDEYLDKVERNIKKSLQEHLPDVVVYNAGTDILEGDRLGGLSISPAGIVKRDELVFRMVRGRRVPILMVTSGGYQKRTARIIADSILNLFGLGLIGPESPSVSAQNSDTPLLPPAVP

[8] = molecular target: T6, WHSC1(h) (NSD2(h)) (Homo sapiens, UniProt O96028); assay: Epigenetic enzyme assay, Methyltransferases (MTs); type: biochemical; conditions: 10 μM; read-out: % Inhibition of Control Values
T6 sequence (O96028 1-1365): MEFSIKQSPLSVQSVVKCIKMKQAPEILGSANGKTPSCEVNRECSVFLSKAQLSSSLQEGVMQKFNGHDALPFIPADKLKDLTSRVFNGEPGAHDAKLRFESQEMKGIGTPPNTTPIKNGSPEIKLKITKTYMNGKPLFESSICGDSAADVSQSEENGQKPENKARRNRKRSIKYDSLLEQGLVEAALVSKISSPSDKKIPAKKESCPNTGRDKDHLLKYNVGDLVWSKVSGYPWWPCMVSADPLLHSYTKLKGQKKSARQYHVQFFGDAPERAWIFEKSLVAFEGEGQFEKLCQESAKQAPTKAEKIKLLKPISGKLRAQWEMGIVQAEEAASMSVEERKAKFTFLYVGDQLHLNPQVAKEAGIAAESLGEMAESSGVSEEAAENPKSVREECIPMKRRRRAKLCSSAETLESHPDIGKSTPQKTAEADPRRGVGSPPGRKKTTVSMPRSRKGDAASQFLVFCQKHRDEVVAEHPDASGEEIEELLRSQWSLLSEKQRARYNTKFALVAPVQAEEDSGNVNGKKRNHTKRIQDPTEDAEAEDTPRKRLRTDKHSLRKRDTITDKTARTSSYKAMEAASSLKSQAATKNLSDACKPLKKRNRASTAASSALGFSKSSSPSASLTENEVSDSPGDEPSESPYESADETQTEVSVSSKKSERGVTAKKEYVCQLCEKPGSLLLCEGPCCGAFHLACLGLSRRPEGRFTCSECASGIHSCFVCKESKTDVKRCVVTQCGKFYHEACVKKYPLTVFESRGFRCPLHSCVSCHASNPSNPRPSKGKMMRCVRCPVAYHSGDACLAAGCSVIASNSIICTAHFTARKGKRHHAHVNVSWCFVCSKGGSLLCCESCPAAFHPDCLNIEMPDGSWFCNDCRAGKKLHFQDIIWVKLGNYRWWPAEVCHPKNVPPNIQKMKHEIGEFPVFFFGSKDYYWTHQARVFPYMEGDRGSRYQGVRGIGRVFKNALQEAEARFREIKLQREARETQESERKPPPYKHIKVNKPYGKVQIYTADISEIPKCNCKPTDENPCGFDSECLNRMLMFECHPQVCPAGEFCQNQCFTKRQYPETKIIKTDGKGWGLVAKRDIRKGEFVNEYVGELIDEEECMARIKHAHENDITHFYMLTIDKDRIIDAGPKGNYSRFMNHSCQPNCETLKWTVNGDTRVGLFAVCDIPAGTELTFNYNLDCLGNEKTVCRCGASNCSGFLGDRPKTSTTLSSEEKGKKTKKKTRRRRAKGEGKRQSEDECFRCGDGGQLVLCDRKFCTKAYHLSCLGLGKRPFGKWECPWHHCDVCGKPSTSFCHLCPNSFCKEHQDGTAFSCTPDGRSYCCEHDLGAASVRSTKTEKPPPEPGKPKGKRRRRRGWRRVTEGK

Row | SMILES | inhibition at 10 µM [1] | inhibition at 10 µM ([2]; 10 μM) | inhibition at 10 µM [3] | inhibition at 10 µM [4] | inhibition at 10 µM [5] | inhibition at 10 µM [6] | inhibition at 10 µM [7] | inhibition at 10 µM [8] | further results
1 | CC(C)=CCC[C@H](CO)[C@@H]1CC[C@@H](C)c2c1cc(C)c(O)c2O [Compound 1, 7,8,18-trihydroxyserrulat-14-ene] | 37% | 84% | 58% | -8% | 36% | -73% | 27% | 3% | % Inhibition of Control Specific Binding ([2]; 10 μM): significant inhibitory activity; inhibition of binding, 1st ([2]; 3.0E−05M): 102.3; inhibition of binding, 2nd ([2]; 3.0E−05M): 102.3; inhibition of binding, Mean ([2]; 3.0E−05M): 102.3; inhibition of binding, 1st ([2]; 3.0E−06M): 8.4; inhibition of binding, 2nd ([2]; 3.0E−06M): 11.3; inhibition of binding, Mean ([2]; 3.0E−06M): 9.9; inhibition of binding, 1st ([2]; 3.0E−07M): −14.1; inhibition of binding, 2nd ([2]; 3.0E−07M): −11.0; inhibition of binding, Mean ([2]; 3.0E−07M): −12.6; inhibition of binding, 1st ([2]; 3.0E−08M): −9.7; inhibition of binding, 2nd ([2]; 3.0E−08M): −14.6; inhibition of binding, Mean ([2]; 3.0E−08M): −12.1; inhibition of binding, 1st ([2]; 3.0E−09M): −6.0; inhibition of binding, 2nd ([2]; 3.0E−09M): −8.6; inhibition of binding, Mean ([2]; 3.0E−09M): −7.3; IC50 ([2]; Table 9, inhibition/concentration-response curve, read-out: IC50): 3.8 µM
2 | CC(C)=CCC[C@@H]1C(O)Oc2c(C)cc(O)c3c2[C@H]1CC[C@H]3C (some centres unmarked) [Compound 2, 5,18-epoxyserrulat-14-en-8,18-diol] | 16% | 43% | 23% | -7% | -17% | -20% | -47% | 14% | 
3 | CC(C)=CCC[C@@H]1COc2c(C)cc(O)c3c2[C@H]1CC[C@H]3C [Compound 3, 5,18-epoxy-8-hydroxyserrulat-14-ene] | 3% | 1% | 21% | 0% | 18% | -11% | -130% | 7% | 

Source: patent publication US11331299B2, “Medicinal use of serrulatane diterpenes” (The University of Sydney, priority 2016, dated 2022)
